The record followed here is patent US20090012038A1, “Methods for microbial biofilm destruction and interference with microbial cellular physiology” (priority 2004, published 2009).

Molecules are shown by their SMILES.

In one assay the test system is S. oneidensis biofilms. Description: Stop-of-flow-induced detachment of biofilms in hydrodynamic flow chamber (CLSM, COMSTAT). The format is cell-based, Shewanella oneidensis MR-1. The protocol:
Transcription is not required for the oxygen starvation-induced detachment. To directly test whether transcription is required for detachment upon rapid decrease in molecular oxygen concentration, we grew biofilms of S. oneidensis in LM medium for 12 h, and subsequently switched the medium to a LM medium amended with 10 μg/ml rifampicin for 10 or 40 minutes, respectively. After that time period, the medium flow was stopped to induce detachment.
External addition of c-di-GMP reversibly prevents biofilm detachment. […] We, therefore, predicted that amending the flow through medium of a biofilm in a hydrodynamic system with c-di-GMP should prevent the induction of detachment after applying a stop-of-flow. To test this hypothesis, biofilms of wild type S. oneidensis were grown in LM medium. […] After 30 min, the flow was stopped to induce detachment and the non-detached biomass was quantified. […]
Microscopic visualization of and image acquisition from biofilms took place at the Stanford Biofilm Research Center using an upright Zeiss LSM510 Confocal Laser Scanning Microscope (Carl Zeiss, Jena, Germany) equipped with the following objectives: 10×/0.3 Plan-Neofluar, 20×/0.5W Achroplan, and 40×/1.2W C-Apochromat. […] Biofilm parameters, such as biomass, and average biofilm thickness were quantified with the program COMSTAT (Heydorn et al., 2000).

In assay [1] the test system is S. oneidensis strain AS129 biofilm cells (IPTG inducible gfp). The assay can be described thus: Transcription test in biofilm cells: IPTG-inducible gfp, GFP fluorescence by CLSM. In kind it is cell-based, Shewanella oneidensis. The settings on record: 10 mM IPTG in flow-through medium; after 1 hour. The protocol:
In order to assure that rifampicin indeed inhibited transcription in biofilm cells under those conditions, we designed an experiment to test transcription in biofilm cells. Tester cells were S. oneidensis cells tagged with an IPTG inducible gfp under control of Pt, which is repressed by LacIQ. […] Upon addition of 10 mM ITPG to the flow-through-medium, the induction of GFP in biofilm cells was readily observed by CLSM throughout the entire biofilm and quantified. This assay is very sensitive, and after 1 hour, about 20% of the maximal inducible GFP fluorescence was observed.

Consider `Nc1nc2c(ncn2[C@@H]2O[C@@H]3COP(=O)(O)O[C@H]4[C@@H](O)[C@H](n5cnc6c(=O)[nH]c(N)nc65)O[C@@H]4COP(=O)(O)O[C@H]3[C@H]2O)c(=O)[nH]1` [c-di-GMP, cyclic-bis(3′,5′)guanylic acid], for which, in the assay with S. oneidensis biofilms (flow resumed with LM devoid of c-di-GMP, 2 h incubation, then flow stopped), the “detachment after stop-of-flow following removal of c-di-GMP” value is listed as “the biofilm still detached”. Also, in the assay on S. oneidensis biofilms (wild type biofilm 12 h in LM, medium amended with 5 mM c-di-GMP, flow stopped after 30 min), the detachment after stop-of-flow result is “no detachment was observed”.

`CC(C)S[C@@H]1O[C@H](CO)[C@H](O)[C@H](O)[C@H]1O` [IPTG, isopropyl-D-D-thiogalactopyranosid]: the “GFP fluorescence, share of the maximal inducible GFP fluorescence” value in assay [1] is given as “about 20%”.
